Laboratory results reported in patent US12590071B2, “Hydrazone derivative in which terminal amine group is substituted with aryl group or heteroaryl group, and use thereof” (KOREA INSTITUTE OF SCIENCE AND TECHNOLOGY, priority 2018, dated 2026).
pIC50: −log10 of the molar value.

Experiments:
tau protein = target: T1, tau protein (Homo sapiens, UniProt P10636); assay: Tau protein aggregation inhibition in tau-BiFC cell model; assay type: cell-based; conditions: tau-BiFC cells treated together with Forskolin, 48 hours
T1 construct: expressed in transfected cells
Procedure: (§1) In order to select new tau protein aggregation-inhibiting materials, tau-BiFC cell models, in which it is easy to observe the formation of tau oligomers in living cells, were used. […] After 48 hours, intracellular nuclei were stained using Hoechst (treatment concentration 2 μg/mL), and BiFC fluorescence intensity was automatically quantified using Operetta (PerkinElmer) to count stained nuclei in each well from the total well plates. […] Further, the degree of cytotoxicity induced by the newly synthesized compound is also based on the 100% survival rate of the group treated with Forskolin alone, and the cytotoxicity value of the compound was calculated by the equation “number of stained nuclei in the group treated with the compound/number of stained nuclei in the group treated with Forskolin x 100”.
(§2) In order to evaluate dose-dependent tau protein aggregation inhibition effects of the compounds selected according to Experimental Example 1, the selected compounds were treated in tau-BiFC cells at concentrations of 0.03 µM, […], 0.3 μM, 1 μM, 3 μM, 10 μM, and 30 μM, respectively, together with Forskolin (treatment concentration 30 µM) as a tau protein aggregation inducing material. After 48 hours, tau protein aggregation reaction and cytotoxicity degree were analyzed by observing cell images. The IC50 and toxicity of the compounds were analyzed by nonlinear regression analysis of prism software (Graph Pad).

Tau-BiFC cells = assay: Cytotoxicity (cell survival rate) in tau-BiFC cells; conditions: group treated with Forskolin alone = 100%
Procedure: as §1, §2

T1 sequence (P10636 2-441 isoform P10636-8 limits assumed): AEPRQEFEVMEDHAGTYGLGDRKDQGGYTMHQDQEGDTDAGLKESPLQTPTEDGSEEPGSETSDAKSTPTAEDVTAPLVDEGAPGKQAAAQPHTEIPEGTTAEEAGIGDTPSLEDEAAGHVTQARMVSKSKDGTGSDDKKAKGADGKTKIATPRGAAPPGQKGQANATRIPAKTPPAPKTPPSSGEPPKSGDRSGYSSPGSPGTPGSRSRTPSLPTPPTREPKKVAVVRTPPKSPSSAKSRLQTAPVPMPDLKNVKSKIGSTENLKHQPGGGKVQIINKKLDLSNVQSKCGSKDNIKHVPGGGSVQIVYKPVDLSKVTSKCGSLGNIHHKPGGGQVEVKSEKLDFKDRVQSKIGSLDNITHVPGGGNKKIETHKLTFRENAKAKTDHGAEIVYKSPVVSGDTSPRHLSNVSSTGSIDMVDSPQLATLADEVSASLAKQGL

Molecule | pIC50 (tau protein) | Cell survival rate (% @ 10 μM) (Tau-BiFC cells) [%]
N#CC(C#N)=NNc1ccc2nc(NC(=O)c3cncnc3)sc2c1 [Compound 94, (2-(pyrimidine-5-carboxamido)benzo[d]thiazol-6-yl)carbonohydrazonoyl dicyanide] | 5.57 | 95.3
N#CC(C#N)=NNc1ccc(-c2ccccn2)cc1 [Compound 10, (4-(pyridin-2-yl)phenyl)carbonohydrazonoyl dicyanide] | 6.28 | 110.1
Cc1nc(-c2ccc(NN=C(C#N)C#N)cc2)ncc1F [Compound 3, (4-(5-fluoro-4-methylpyrimidin-2-yl)phenyl)carbonohydrazonoyl dicyanide] | 5.62 | 66
Cc1ncc(C(=O)Nc2nc3ccc(NN=C(C#N)C#N)cc3s2)cn1 [Compound 95, (2-(2-methylpyrimidine-5-carboxamido)benzo[d]thiazol-6-yl)carbonohydrazonoyl dicyanide] | 6.10 | 100.8
Cc1c[nH]c2ncc(NN=C(C#N)C#N)cc12 [Compound 82, (3-methyl-1H-pyrrolo[2,3-b]pyridin-5-yl)carbonohydrazonoyl dicyanide] | 6.37 | 120.2
COc1cc(-c2ncccn2)ccc1NN=C(C#N)C#N [Compound 43, (2-methoxy-4-(pyrimidin-2-yl)phenyl)carbonohydrazonoyl dicyanide] | 5.74 | 112.3
N#CC(C#N)=NNc1cnc2ccccc2c1 [Compound 64, quinolin-3-ylcarbonohydrazonoyl dicyanide] | 6.72 | 112.5
(2-(pyrazine-2-carboxamido)benzo[d]thiazol-5-yl)carbonohydrazonoyl dicyanide [Compound 99] | 7.00 | 113.1
Cn1cc2ccc(NN=C(C#N)C#N)cc2n1 [Compound 65, (2-methyl-2H-indazol-6-yl)carbonohydrazonoyl dicyanide] | 7.14 | 103.3
COc1cc(-c2ncc(C)cn2)ccc1NN=C(C#N)C#N [Compound 41, (2-methoxy-4-(5-methylpyrimidin-2-yl)phenyl)carbonohydrazonoyl dicyanide] | 5.15 | 126.8
C#Cc1cnc(-c2ccc(NN=C(C#N)C#N)cc2)nc1 [Compound 149, (4-(5-ethynylpyrimidin-2-yl)phenyl)carbohydrazonoyl dicyanide] | 7.00 | 113.9
CCc1ccnc(-c2ccc(NN=C(C#N)C#N)cc2)n1 [Compound 6, (4-(4-ethylpyrimidin-2-yl)phenyl)carbonohydrazonoyl dicyanide] | 6.05 | 147.1
N#CC(C#N)=NNc1ccc(-c2cnc3ccccc3n2)cc1 [Compound 52, (4-(quinoxalin-2-yl)phenyl)carbonohydrazonoyl dicyanide] | 5.85 | 139.6
N#CC(C#N)=NNc1ccc(-c2ncccn2)cc1F [Compound 38, (2-fluoro-4-(pyrimidin-2-yl)phenyl)carbonohydrazonoyl dicyanide] | 6.03 | 88.9
Cn1ccc2cc(NN=C(C#N)C#N)ccc21 [Compound 68, (1-methyl-1H-indol-5-yl)carbonohydrazonoyl dicyanide] | 7.22 | 177.2
N#CC(C#N)=NNc1ccc(-c2cncs2)cc1 [Compound 20, (4-(thiazol-5-yl)phenyl)carbonohydrazonoyl dicyanide] | 6.22 | 90
Cn1ccc2cc(NN=C(C#N)C#N)cnc21 [Compound 76, (1-methyl-1H-pyrrolo[2,3-b]pyridin-5-yl)carbonohydrazonoyl dicyanide] | 7.40 | 195.8
N#CC(C#N)=NNc1ccc2[nH]ccc2c1 [Compound 71, (1H-indol-5-yl)carbonohydrazonoyl dicyanide] | 6.07 | 116.4
Cc1ccnc(-c2ccc(NN=C(C#N)C#N)cc2F)n1 [Compound 40, (3-fluoro-4-(4-methylpyrimidin-2-yl)phenyl)carbonohydrazonoyl dicyanide] | 5.60 | 101.3
N#CC(C#N)=NNc1ccc(-c2cnc3nccn3c2)cc1 [Compound 51, (4-(imidazo[1,2-a]pyrimidin-6-yl)phenyl)carbonohydrazonoyl dicyanide] | 5.13 | 84.2
Cn1ncc2cc(NN=C(C#N)C#N)ccc21 [Compound 66, (1-methyl-1H-indazol-5-yl)carbonohydrazonoyl dicyanide] | 7.92 | 96.8
Cc1n[nH]c2cc(NN=C(C#N)C#N)ccc12 [Compound 73, (3-methyl-1H-indazol-6-yl)carbonohydrazonoyl dicyanide] | 5.96 | 138.5
COc1cccc2sc(NN=C(C#N)C#N)nc12 [Compound 59, (4-methoxybenzo[d]thiazol-2-yl)carbonohydrazonoyl dicyanide] | 6.30 | 120.3
Cc1ncncc1C(=O)Nc1nc2ccc(NN=C(C#N)C#N)cc2s1 [Compound 96, (2-(4-methylpyrimidine-5-carboxamido)benzo[d]thiazol-6-yl)carbonohydrazonoyl dicyanide] | 6.40 | 106.1
N#CC(C#N)=NNc1ccc(-c2ccc3[nH]ccc3c2)cc1 [Compound 58, (4-(1H-indol-5-yl)phenyl)carbonohydrazonoyl dicyanide] | 5.92 | 113.8
N#CC(C#N)=NNc1ccc(-c2ccc3nccn3c2)cc1 [Compound 53, (4-(imidazo[1,2-a]pyridin-6-yl)phenyl)carbonohydrazonoyl dicyanide] | 5.89 | 158.2
N#CC(C#N)=NNc1ccc(-c2ncccn2)c(F)c1 [Compound 39, (3-fluoro-4-(pyrimidin-2-yl)phenyl)carbonohydrazonoyl dicyanide] | 5.82 | 89.8
